Common to all, as to format: in vitro ADME
The subject of one series is human hepatocytes. Kind of series: Hepatocytes stability assay (human hepatocytes). The conditions noted are these: scaled hepatic clearance divided by liver blood flow, fu assumed unity. Put shortly:
(§1)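 Cryopreserved pooled (50 donors, mixed gender) human hepatocytes at 1×10^6 cells/mL in Krebs-Henseleit buffer with 1 μM compound (0.1% DMSO), 37 degrees C, sampled 0–240 min. Parent depletion by LC-MS/MS; first-order fit gave T1/2 and CLint, scaled to hepatic clearance via well-stirred model (fu assumed 1); extraction ratio = CL,hep/liver blood flow.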

A short description of series [1]: Hepatocytes stability assay (human hepatocytes). The conditions noted are these: both sexes, cryopreserved hepatocytes, 1 μM test compound, 1×10^6 cell/mL, 37 degrees C, read-out: CLint (μL/min/million cells). In a few lines: as §1
The next series deals with MDR1. Kind of series: MDCK-MDR1 permeability assay. The conditions noted are these: dog; for Papp A→B at 2 h, 3 μM: MDCK-MDR1, MDCK-MDR1 cells, apical to basolateral, 3 μM test compound, 2 hours at 37 degrees C; for efflux ratio at 2 h, 3 μM: MDCK-MDR1, Papp (basolateral to apical) divided by Papp (apical to basolateral), MDCK-MDR1 cells, read-out: Efflux ratio (ER). Put shortly: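 Bidirectional transport across MDCK-MDR1 monolayers with test compound at 3 μM in HBSS, Lucifer Yellow 100 μM co-dosed as integrity marker; 2 h at 37 °C, donor and receiver quantified by LC-MS/MS. Papp = dQ/dt × 1/(A×C0); efflux ratio = Papp(B→A)/Papp(A→B), ER>2 taken as active transport.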

Consider `CS(=O)(=O)N[C@@H]1CCCN2C(=O)COc3cccc(F)c3[C@H]3CC[C@H](CC3)OC[C@H]12` (racemic) [Compound 49], for which the “Extraction Ratio (ER)” value in the series on human hepatocytes is 0.64. In addition, in series [1], the hepatocyte CLint at 1 μM was 12 µL/min/1e6 cells. In the series on MDR1, the Papp A→B (as a rule, the apparent permeability from the apical to the basolateral side of a cell layer) at 2 h, 3 μM turned out to be 0.72 ×10⁻⁶ cm/s and the efflux ratio at 2 h, 3 μM worked out at 36.
The like results for `COC(=O)N1CCC[C@H](NS(C)(=O)=O)[C@@H]1CO[C@H]1CC[C@@H](c2ccccc2)CC1` [methyl (2R,3S)-3-((methylsulfonyl)amino)-2-(((cis-4-phenylcyclohexyl)oxy)methyl)-piperidine-1-carboxylate, reference compound] were, in that order, 0.88, 51 µL/min/1e6 cells, 5.9 ×10⁻⁶ cm/s and 4.

Source of the values: patent US12054495B2, “Substituted macrocyclic compounds and related methods of treatment” (Alkermes, Inc., priority 2019, dated 2024).
